The values below are quoted from earlier work in publication PMC7679302 (Environmental Science and Pollution Research International, 2020).

Molecules are shown by their SMILES.

In data set [1] the test system is glochidia of L. siliquoidea. On the set-up: method as in Gilroy et al. ([2017]). As to conditions: ref Gilroy et al. ([2017]); cited from earlier work.
The test system of another data set is juvenile L. siliquoidea. On the set-up: method as in Gilroy et al. ([2017]). The conditions noted are these: ref Gilroy et al. ([2017]); cited from earlier work.
The test system of data set [2] is D. magna. As to conditions: ref Minguez et al. ([2014]); cited from earlier work.
In data set [3] the test system is D. magna. Details: method as in Haeba et al. [2008]. The conditions noted are these: ref Haeba et al. [2008], cited from earlier work.

`CN(C)CCC=C1c2ccccc2CCc2ccccc21` [amitriptyline]: in data set [1], the “24-h LC50” value is 0.3 µg/mL. In the data set with juvenile L. siliquoidea, the “14-day LC50” value was 0.4 µg/mL. In addition, the “48-h EC50” value with D. magna [2] is 4.8 µg/mL.

As for `CC(C)C(=O)Nc1ccc([N+](=O)[O-])c(C(F)(F)F)c1` [flutamide], the “Effect on maturation and embryonic development” value in the data set on D. magna [3] (concentrations up to 1 mg/L) is “delayed the maturation of female D. magna and inhibited the embryonic development of neonates”. Further, the “48-h EC50 for immobilization” value in the data set with D. magna [3] is 2.7 µg/mL.

For the molecule `CN[C@H]1CC[C@@H](c2ccc(Cl)c(Cl)c2)c2ccccc21` [sertraline], the “24-h LC50” value in data set [1] was 0.06 µg/mL. In addition, the “28-day LC50” value with juvenile L. siliquoidea is 0.04 µg/mL.
